Data on 21 compounds can be found in ChEMBL document CHEMBL3351918 (Bioorg Med Chem, 2014).

Active and inactive are the calls of the source. No cut-off for these calls is given here.

Data set [1] addresses T1, Acetylcholinesterase (Rattus norvegicus, UniProt P37136).
T1 sequence (P37136 whole entry): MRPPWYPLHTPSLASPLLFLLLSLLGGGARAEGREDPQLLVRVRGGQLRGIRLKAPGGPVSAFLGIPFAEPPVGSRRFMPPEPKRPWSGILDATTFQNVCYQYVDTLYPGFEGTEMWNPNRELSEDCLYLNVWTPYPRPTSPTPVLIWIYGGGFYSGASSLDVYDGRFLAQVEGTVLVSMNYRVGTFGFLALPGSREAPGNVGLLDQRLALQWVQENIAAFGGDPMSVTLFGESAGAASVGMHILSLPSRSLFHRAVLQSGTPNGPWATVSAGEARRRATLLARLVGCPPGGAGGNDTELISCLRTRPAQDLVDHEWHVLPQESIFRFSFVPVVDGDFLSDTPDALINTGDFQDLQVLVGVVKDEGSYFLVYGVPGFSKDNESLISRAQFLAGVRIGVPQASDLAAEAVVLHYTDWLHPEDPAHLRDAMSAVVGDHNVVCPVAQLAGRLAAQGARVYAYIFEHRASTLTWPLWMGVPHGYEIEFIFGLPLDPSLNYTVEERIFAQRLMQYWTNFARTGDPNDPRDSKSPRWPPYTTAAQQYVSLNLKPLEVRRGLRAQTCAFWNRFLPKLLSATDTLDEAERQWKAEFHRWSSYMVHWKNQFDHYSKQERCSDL
Description: Inhibition of AChE in rat cortex homogenates using acetylthiocholine iodide substrate incubated for 15 mins by UV spectroscopy based Ellman's method. Background: Ellman's reagent forms a yellow product with free thiols.

For data set [2], the target named is Butyrylcholinesterase (Rattus norvegicus) (UniProt Q9JKC1). Description: Potency index, ratio of IC50 for rivastigmine to IC50 for test compound against BChE in rat serum using butyrylthiocholine iodide substrate incubated for 15 mins by UV spectroscopy based Ellman's method. The data set is classed as cell-free.
Chain of Butyrylcholinesterase (Rattus norvegicus) (Q9JKC1 as listed by the source): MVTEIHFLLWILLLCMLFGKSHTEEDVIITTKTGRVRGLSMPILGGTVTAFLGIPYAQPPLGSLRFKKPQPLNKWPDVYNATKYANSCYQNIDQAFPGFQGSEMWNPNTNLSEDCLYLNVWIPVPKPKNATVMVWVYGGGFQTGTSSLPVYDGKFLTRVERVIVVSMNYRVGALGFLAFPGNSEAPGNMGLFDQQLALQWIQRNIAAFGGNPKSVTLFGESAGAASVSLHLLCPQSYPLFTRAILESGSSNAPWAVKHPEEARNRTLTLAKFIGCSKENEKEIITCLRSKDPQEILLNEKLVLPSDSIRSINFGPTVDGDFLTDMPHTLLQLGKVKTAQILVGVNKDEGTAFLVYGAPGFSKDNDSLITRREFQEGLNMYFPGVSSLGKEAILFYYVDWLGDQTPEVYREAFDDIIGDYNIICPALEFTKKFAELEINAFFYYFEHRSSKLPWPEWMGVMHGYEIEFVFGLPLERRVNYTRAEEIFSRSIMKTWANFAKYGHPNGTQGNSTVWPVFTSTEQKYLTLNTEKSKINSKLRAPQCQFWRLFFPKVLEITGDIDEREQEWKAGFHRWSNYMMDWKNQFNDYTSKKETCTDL
Data set [3] deals with Butyrylcholinesterase (Rattus norvegicus, UniProt Q9JKC1). Briefly: Inhibition of BChE in rat serum using butyrylthiocholine iodide substrate incubated for 15 mins by UV spectroscopy based Ellman's method. The data set is classed as cell-free.
Chain of Butyrylcholinesterase (Q9JKC1 whole entry): as the sequence (Q9JKC1 as listed by the source) above
Data set [4] deals with Amyloid-beta precursor protein (Homo sapiens) (UniProt P05067). Briefly: Inhibition of Amyloid beta (1 to 40) (unknown origin) assessed as self-mediated fibril formation at 50 uM incubated for 48 hrs by transmission electron microscopy.
Chain of Amyloid-beta precursor protein (Homo sapiens) (P05067 whole entry): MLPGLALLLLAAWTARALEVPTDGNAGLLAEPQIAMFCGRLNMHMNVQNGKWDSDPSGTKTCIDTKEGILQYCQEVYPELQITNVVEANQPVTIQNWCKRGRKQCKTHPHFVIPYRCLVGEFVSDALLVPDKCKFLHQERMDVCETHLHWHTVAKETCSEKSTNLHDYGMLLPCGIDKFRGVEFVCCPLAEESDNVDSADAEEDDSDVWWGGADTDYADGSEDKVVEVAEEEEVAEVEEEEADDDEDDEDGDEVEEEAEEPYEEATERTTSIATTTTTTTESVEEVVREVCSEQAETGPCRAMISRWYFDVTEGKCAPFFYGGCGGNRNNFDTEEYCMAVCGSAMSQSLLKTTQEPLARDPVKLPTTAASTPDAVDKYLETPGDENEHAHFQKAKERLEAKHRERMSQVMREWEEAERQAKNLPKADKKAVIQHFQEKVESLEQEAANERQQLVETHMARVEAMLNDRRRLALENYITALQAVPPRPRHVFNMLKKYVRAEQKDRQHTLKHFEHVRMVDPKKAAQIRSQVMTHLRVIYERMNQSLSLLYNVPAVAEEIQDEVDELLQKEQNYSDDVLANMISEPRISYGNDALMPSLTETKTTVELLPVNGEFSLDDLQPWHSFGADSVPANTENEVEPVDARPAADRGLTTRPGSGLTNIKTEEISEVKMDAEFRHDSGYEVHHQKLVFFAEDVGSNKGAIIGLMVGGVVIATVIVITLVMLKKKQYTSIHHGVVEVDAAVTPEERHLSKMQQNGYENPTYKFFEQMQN
The nature of data set [5]: Antioxidant activity assessed as ABTS radical cation scavenging activity. The data set is classed as physicochemical.
Data set [6] concerns the target T1, Acetylcholinesterase. Description: Retention time in rat cortex homogenates at 1 mmol after 24 hrs by HPLC-MS method. The data set is classed as ADME. The following applies: tissue homogenate.
The target in data set [7] is T1, Acetylcholinesterase. Description: Prodrug activation in rat cortex homogenates assessed as AChE-mediated 2-methoxy-4-(piperidin-1-ylmethyl)phenol formation at 1 mmol after 24 hrs by HPLC-MS method. Particulars: tissue homogenate.
Data set [8] is described as follows: Metal chelating activity assessed as inhibition of copper-mediated Amyloid beta (1 to 40) aggregation at 50 uM after 48 hrs by transmission electron microscopy. The data set is classed as physicochemical.
The target in data set [9] is T1, Acetylcholinesterase. Briefly: Prodrug activation in rat cortex homogenates treated with 1 mmol 2-Methoxy-4-(piperidin-1-ylmethyl)phenyl dimethylcarbamate assessed as AChE-mediated compound formation after 24 hrs by HPLC-MS method. The data set is classed as ADME. The following applies: tissue homogenate.

As for `COc1cc(C(C)N2CCCCC2)ccc1OC(=O)N(C)C` (stereo not given), the concentration for half-maximal inhibition (IC50) came to 110 nM in [1] and 8 nM in data set [3]. Further, the Ratio IC50 in data set [2] is 40. Also, the inhibition result in data set [4] was “Active”.

With `COc1cccc(CN2CCCCC2)c1OC(=O)N(C)C`, the IC50 in data set [1] worked out at 22700 nM; in data set [3], 3130 nM.

Turning to `COc1ccc2[nH]cc(CCNC(C)=O)c2c1` [MELATONIN], in [5], the 50% inhibitory concentration (IC50) is 1920 nM and the “inhibition (INH)” value is “Dose-dependent effect”.

Take `CCN(CC)Cc1ccc(OC)c(OC(=O)N(C)C)c1`: the results for the IC50 in [1] and in data set [3] were 1480 nM and 79 nM, respectively.

As to `COc1ccc(C(C)N2CCCCC2)cc1OC(=O)N(C)C` (stereo not given), the half-maximal inhibitory concentration (IC50) in data set [1] amounted to 1420 nM; in data set [3] it was 34 nM.

With `COc1cc(CN2CCCCC2)ccc1OC(=O)N(C)C`, in data set [6], the Retention_time is 6.84 min. In addition, the values for the half-inhibitory concentration (IC50) in data set [1] and in [3] were 97 nM and 24 nM, respectively. In addition, the Drug metabolism entry in data set [7] is “metabolite_detected”. Besides, the inhibition entry in data set [4] was “Active”.

Turning to `COc1ccc(C(C)N2CCOCC2)cc1OC(=O)N(C)C` (stereo not given), the IC50 in [1] is 23300 nM; in data set [3] it was 270 nM.

With `COc1ccc(CN2CCCCC2)cc1OC(=O)N(C)C`, the IC50 in data set [1] was 660 nM; in [3], 10 nM. In data set [2], the Ratio IC50 is 40. For the same compound, in data set [4], the inhibition entry was “Active”.

As to `COc1ccc(CN2CCOCC2)cc1OC(=O)N(C)C`, the IC50 in data set [1] came to 20800 nM; in data set [3], 120 nM.

In the case of `COc1cc(CN2CCCC2)ccc1OC(=O)N(C)C`, the 50% inhibitory concentration (IC50) in data set [1] is 130 nM; in data set [3], 12 nM.

As to `COc1cc(CN2CCCCC2)ccc1O`, in [6], the Retention_time turned out to be 5.5 min. Also, the half-maximal inhibitory concentration (IC50) in [5] stood at 2910 nM. Further, the “inhibition (INH)” value in [5] was “Dose-dependent effect”; in data set [8] it was “Active”. In [9], the Drug metabolism entry is on record as “metabolite_detected”.

As to `CCN(CC)C(C)c1ccc(OC(=O)N(C)C)c(OC)c1` (stereo not given), the IC50 was determined as 240 nM in [1] and 63 nM in data set [3].

As for `COc1cc(C(C)N2CCCC2)ccc1OC(=O)N(C)C` (stereo not given), the results for the half-maximal inhibitory concentration (IC50) in data set [1] and in data set [3] were 190 nM and 18 nM, respectively.

For the compound `CCN(CC)C(C)c1ccc(OC)c(OC(=O)N(C)C)c1` (stereo not given), the figures for the IC50 in data set [1] and in [3] were 2770 nM and 130 nM, respectively.

On to `COc1cc(CN2CCOCC2)ccc1OC(=O)N(C)C`, for which the concentration for half-maximal inhibition (IC50) came to 1710 nM in [1] and 430 nM in data set [3].

For `COc1ccc(CN2CCCC2)cc1OC(=O)N(C)C`, the half-maximal inhibitory concentration (IC50) in data set [1] turned out to be 2870 nM; in [3] it was 29 nM.

Take `CCN(CC)Cc1ccc(OC(=O)N(C)C)c(OC)c1`: the IC50 came out at 110 nM in [1] and 35 nM in data set [3].

As to `COc1ccc(C(C)N2CCCC2)cc1OC(=O)N(C)C` (stereo not given), the IC50 in data set [1] was 1920 nM; in [3], 82 nM.

On to `CCN(C)C(=O)Oc1cccc([C@H](C)N(C)C)c1`, for which the inhibition entry in data set [4] was “inactive”.

With `COc1cc(/C=C/C(=O)CC(=O)/C=C/c2ccc(O)c(OC)c2)ccc1O`, the inhibition result in data set [4] is “Active”.

For the compound `COc1cc(C(C)N2CCOCC2)ccc1OC(=O)N(C)C` (stereo not given), the figures for the IC50 in [1] and in [3] were 4980 nM and 310 nM, respectively.

The IC50 is the concentration that inhibits the measured activity by half.
